According to ChEMBL document CHEMBL3745655, “Novel carbocyclic nucleoside analogs suppress glomerular mesangial cells proliferation and matrix protein accumulation through ROS-dependent mechanism in the diabetic milieu. II. Acylhydrazone-functionalized pyrimidines” (Bioorg Med Chem Lett, 2016):
The source made the active and inactive calls. The calls are words filed in the database; no cut-off is given here.

What was measured:
Format in all cases: functional
[1] = Antidiabetic activity in 24 hrs serum-deprived rat glomerular mesangial cells assessed as reduction of high glucose-induced fibronectin and beta-actin expression ratio at 5 uM after 48 hrs by Western blot analysis relative to control
[2] = Antidiabetic activity in 24 hrs serum-deprived rat glomerular mesangial cells assessed as reduction of high glucose-induced fibronectin and beta-actin expression ratio at 1 uM after 48 hrs by Western blot analysis relative to control
[3] = Antidiabetic activity in 24 hrs serum-deprived rat glomerular mesangial cells assessed as reduction of high glucose-induced fibronectin and beta-actin expression ratio at 0.25 uM after 48 hrs by Western blot analysis relative to control
[4] = Antidiabetic activity in 24 hrs serum-deprived rat glomerular mesangial cells assessed as reduction of high glucose-induced fibronectin and beta-actin expression ratio at 0.5 uM after 48 hrs by Western blot analysis relative to control
[5] = species: Rattus norvegicus; assay: Protection against high glucose-induced increase of cell proliferation in rat glomerular mesangial cells after 48 hrs by MTT assay
[6] = Antidiabetic activity in 24 hrs serum-deprived rat glomerular mesangial cells assessed as reduction of high glucose-induced ROS production at 5 uM after 48 hrs by DHE staining
[7] = Antidiabetic activity in 24 hrs serum-deprived rat glomerular mesangial cells assessed as reduction of high glucose-induced ROS production at 1 uM after 48 hrs by DHE staining

| SMILES | Ratio [1] | Ratio [2] | Ratio [3] | Ratio [4] | Activity [5] | Activity [6] | Activity [7] |
| --- | --- | --- | --- | --- | --- | --- | --- |
| CCOC(=O)[C@H]1CC(=O)C[C@H]1C(=O)OCC | 84.2 | 88.9 | 81.8 | 79.8 |  |  |  |
| Cc1cn(CCC(=O)NN)c(=O)nc1O | 102 | 94 |  | 89.2 |  |  |  |
| Cc1cn(CCC(=O)NN=C2CCCC2)c(=O)nc1O | 127 | 126 |  | 118 |  |  |  |
| NNC(=O)CCn1ccc(N)nc1=O | 80.8 | 81.6 |  | 76.5 |  |  |  |
| NNC(=O)CCn1ccc(O)nc1=O | 85.4 | 80.5 |  | 101 | Active | Active |  |
| Nc1ccn(CCC(=O)NN=C2CCCC2)c(=O)n1 | 275 | 213 |  | 218 |  |  |  |
| O=C(CCn1ccc(O)nc1=O)NN=C1CCCC1 | 64.3 | 84.8 |  | 100 | Active |  | Active |
| O=C1CCCC1 | 129 | 114 | 82.8 | 101 |  |  |  |
| O=C1C[C@H](C(=O)O)[C@H](C(=O)O)C1 | 121 | 145 | 129 | 149 |  |  |  |
| CCOC(=O)C1CCC/C1=N\NC(=O)CCn1cc(C)c(O)nc1=O (racemic) | 91.6 | 96.5 |  | 88.8 | inactive |  |  |
| CCOC(=O)C1CCC/C1=N\NC(=O)CCn1ccc(N)nc1=O (racemic) | 102 | 119 |  | 111 |  |  |  |
| CCOC(=O)C1CCC/C1=N\NC(=O)CCn1ccc(O)nc1=O (racemic) | 106 | 126 |  | 127 |  |  |  |
| CCOC(=O)C1CCCC1=O (racemic) | 137 | 88.3 | 109 | 110 |  |  |  |
| CCOC(=O)[C@@H]1CC(=NNC(=O)CCn2cc(C)c(O)nc2=O)C[C@H]1C(=O)OCC (racemic) | 87.6 | 90.8 |  | 94.2 |  |  |  |
| CCOC(=O)[C@@H]1CC(=NNC(=O)CCn2ccc(N)nc2=O)C[C@H]1C(=O)OCC (racemic) | 80.6 | 96.1 |  | 98.2 | inactive |  |  |
| CCOC(=O)[C@@H]1CC(=NNC(=O)CCn2ccc(O)nc2=O)C[C@H]1C(=O)OCC (racemic) | 94 | 132 |  | 145 | Active |  | Active |
| CCOC(=O)[C@@H]1CC(=O)C[C@H]1C(=O)OCC (racemic) | 79.7 | 86.3 | 82.4 | 90.2 |  |  |  |
| CCOC(=O)[C@H]1C/C(=N\NC(=O)CCn2cc(C)c(O)nc2=O)C[C@H]1C(=O)OCC (racemic) | 81.1 | 97.9 |  | 91.9 |  |  |  |
| CCOC(=O)[C@H]1C/C(=N\NC(=O)CCn2ccc(N)nc2=O)C[C@H]1C(=O)OCC (racemic) | 125 | 91 |  | 95.1 |  |  |  |
| CCOC(=O)[C@H]1C/C(=N\NC(=O)CCn2ccc(O)nc2=O)C[C@H]1C(=O)OCC (racemic) | 76.5 | 93.7 |  | 97.5 | inactive |  |  |
| Cc1cn(CCC(=O)N/N=C2\C[C@H](C(=O)O)[C@H](C(=O)O)C2)c(=O)nc1O (racemic) | 70.7 | 72 |  | 80.1 | Active |  | Active |
| Cc1cn(CCC(=O)NN=C2C[C@@H](C(=O)O)[C@H](C(=O)O)C2)c(=O)nc1O (racemic) | 63.1 | 64.6 |  | 78.4 | Active |  | Active |
| Nc1ccn(CCC(=O)N/N=C2\C[C@H](C(=O)O)[C@H](C(=O)O)C2)c(=O)n1 (racemic) | 113 | 142 | 136 | 143 |  |  |  |
| Nc1ccn(CCC(=O)NN=C2C[C@@H](C(=O)O)[C@H](C(=O)O)C2)c(=O)n1 (racemic) | 107 | 128 | 123 | 126 |  |  |  |
| O=C(CCn1ccc(O)nc1=O)N/N=C1\C[C@H](C(=O)O)[C@H](C(=O)O)C1 (racemic) | 117 | 96.7 | 75.1 | 80 |  |  |  |
| O=C(CCn1ccc(O)nc1=O)NN=C1C[C@@H](C(=O)O)[C@H](C(=O)O)C1 (racemic) | 96.9 | 115 | 132 | 116 |  |  |  |
| O=C1C[C@@H](C(=O)O)[C@H](C(=O)O)C1 (racemic) | 124 | 149 | 135 | 143 |  |  |  |
